Results on twelve molecules are retold here after US8362031B2, “Lonidamine analogues and treatment of polycystic kidney disease” (University of Kansas, priority 2004, dated 2013).

Molecules are shown by their SMILES.

One series deals with Male Long Evans rats. Nature of the series: In vivo antispermatogenic testing in Long Evans rats. To be noted: for Mortality (25 mg/kg) / Response 25 mg/kg: 25 mg/kg single i.p. injection; for Response 25 mg/kg / Response 200 mg/kg: animals responding out of animals surviving, five days following injection; for Mortality (200 mg/kg) / Response 200 mg/kg: 200 mg/kg single i.p. injection; for Staging 25 mg/kg / Staging 200 mg/kg: seminiferous tubule staging; for Staging 25 mg/kg: 25 mg/kg i.p.; for Staging 200 mg/kg: 200 mg/kg i.p.

The test system of series [1] is Salmonella Typhimurium TA 100. Briefly: Ames test for mutagenicity (plate assay, colony count). To be noted: 48 hours at 37° C.; for Ames test (+)S9 0.1 mg/pl. / Ames test (+)S9 1 mg/pl. / Ames test (+)S9 10 mg/pl.: (+)S9 mix; for Ames test (−)S9 0.1 mg/pl. / Ames test (−)S9 1 mg/pl. / Ames test (−)S9 10 mg/pl.: (−)S9 mix. (In general: In the Ames test, an excess of revertant colonies over the control signals mutagenicity.)

For `NNC(=O)c1nn(Cc2ccc(Cl)cc2Cl)c2ncccc12` [RC-MC-60, 1-(2,4-dichlorobenzyl)-1H-pyrazolo[3,4-b]pyridine-3-carboxylic acid hydrazide], in the series on Male Long Evans rats, the “Mortality (25 mg/kg)” value was 0/5, the “Response 25 mg/kg” value is 0/5, the “Mortality (200 mg/kg)” value was 0/5 and the “Response 200 mg/kg” value is given as 0/5. In series [1], the “Ames test (+)S9 0.1 mg/pl.” value is reported as “Pass”, the “Ames test (+)S9 1 mg/pl.” value was “Pass”, the “Ames test (+)S9 10 mg/pl.” value is “Pass” and the “Ames test (−)S9 0.1 mg/pl.” value was “Pass”. Further, in series [1], the “Ames test (−)S9 1 mg/pl.” value is “Pass” and the “Ames test (−)S9 10 mg/pl.” value is listed as “Pass”.

Regarding `NNC(=O)c1nn(Cc2ccc(Cl)cc2Cl)c2cc(C(F)(F)F)ccc12` [RC-MC-101, 1-(2,4-dichlorobenzyl)-6-trifluoromethyl-1H-indazole-3-carboxylic acid hydrazide], in the series on Male Long Evans rats, the “Mortality (25 mg/kg)” value is reported as 0/5, the “Response 25 mg/kg” value was 0/5, the “Mortality (200 mg/kg)” value is 0/5 and the “Response 200 mg/kg” value is 0/5. For the same molecule, in series [1], the “Ames test (+)S9 0.1 mg/pl.” value was “Pass”, the “Ames test (+)S9 1 mg/pl.” value was “Pass”, the “Ames test (+)S9 10 mg/pl.” value is “Pass” and the “Ames test (−)S9 0.1 mg/pl.” value is recorded as “Pass”. Further, in series [1], the “Ames test (−)S9 1 mg/pl.” value is recorded as “Pass” and the “Ames test (−)S9 10 mg/pl.” value is “Pass”.

For the molecule `O=C(O)c1nn(Cc2ccc(Cl)cc2Cl)c2ncccc12` [RC-MC-86, 1-(2,4-dichlorobenzyl)-1H-pyrazolo[3,4-b]pyridine-3-carboxylic acid], in the series with Male Long Evans rats, the “Mortality (25 mg/kg)” value is 0/5, the “Response 25 mg/kg” value is 0/5, the “Mortality (200 mg/kg)” value is 0/5 and the “Response 200 mg/kg” value is reported as 5/5. Further, in series [1], the “Ames test (+)S9 0.1 mg/pl.” value was “Pass”, the “Ames test (+)S9 1 mg/pl.” value is on record as “Pass”, the “Ames test (+)S9 10 mg/pl.” value is “Pass” and the “Ames test (−)S9 0.1 mg/pl.” value is given as “Pass”. Also, in series [1], the “Ames test (−)S9 1 mg/pl.” value was “Pass” and the “Ames test (−)S9 10 mg/pl.” value is on record as “Pass”.

As for `COC(=O)c1nn(Cc2ccc(F)cc2F)c2cc(Cl)ccc12` [JWS-1-280, 1-(2,4-difluorobenzyl)-6-chloro-1H-indazole-3-carboxylic acid methyl ester], in the series on Male Long Evans rats, the “Mortality (25 mg/kg)” value is listed as 0/5, the “Response 25 mg/kg” value is reported as 0/5, the “Mortality (200 mg/kg)” value is 0/5 and the “Response 200 mg/kg” value is on record as 0/5. Also, in series [1], the “Ames test (+)S9 0.1 mg/pl.” value is “Pass”, the “Ames test (+)S9 1 mg/pl.” value is given as “Pass”, the “Ames test (+)S9 10 mg/pl.” value is “Pass” and the “Ames test (−)S9 0.1 mg/pl.” value is “Pass”. Also, in series [1], the “Ames test (−)S9 1 mg/pl.” value was “Pass” and the “Ames test (−)S9 10 mg/pl.” value was “Pass”.

In the case of `O=C(O)c1nn(Cc2ccc(Cl)cc2Cl)c2cc(Cl)ccc12` [DD-MC-I, 6-chloro-1-(2,4-dichlorobenzyl)-1H-indazole-3-carboxylic acid], in the series with Male Long Evans rats, the “Mortality (25 mg/kg)” value was 0/5, the “Response 25 mg/kg” value is given as 0/5, the “Mortality (200 mg/kg)” value is 0/5 and the “Response 200 mg/kg” value is recorded as 2/5. In addition, in series [1], the “Ames test (+)S9 0.1 mg/pl.” value is recorded as “Pass”, the “Ames test (+)S9 1 mg/pl.” value is “Pass”, the “Ames test (+)S9 10 mg/pl.” value is “Pass” and the “Ames test (−)S9 0.1 mg/pl.” value was “Pass”. In addition, in series [1], the “Ames test (−)S9 1 mg/pl.” value was “Pass” and the “Ames test (−)S9 10 mg/pl.” value is “Pass”.

Consider `COC(=O)c1nn(Cc2ccc(Cl)cc2Cl)c2ccc(C(F)(F)F)cc12` [JWS-1-254, 1-(2,4-dichlorobenzyl)-5-trifluoromethyl-1H-indazole-3-carboxylic acid methyl ester], for which, in the series with Male Long Evans rats, the “Mortality (25 mg/kg)” value is on record as 0/5, the “Response 25 mg/kg” value was 0/5, the “Mortality (200 mg/kg)” value is given as 0/5 and the “Response 200 mg/kg” value is listed as 0/5. Also, in series [1], the “Ames test (+)S9 0.1 mg/pl.” value is given as “Pass”, the “Ames test (+)S9 1 mg/pl.” value is on record as “Pass”, the “Ames test (+)S9 10 mg/pl.” value was “Pass” and the “Ames test (−)S9 0.1 mg/pl.” value was “Pass”. Further, in series [1], the “Ames test (−)S9 1 mg/pl.” value is “Pass” and the “Ames test (−)S9 10 mg/pl.” value is reported as “Pass”.

On to `O=C(O)/C=C/c1nn(Cc2ccc(Cl)cc2Cl)c2ccc(C(F)(F)F)cc12` [JWS-1-268, 3-[1-(2,4-dichlorobenzyl)-5-trifluoromethyl-1H-indazol-3-yl]-acrylic acid], for which, in series [1], the “Ames test (+)S9 0.1 mg/pl.” value is on record as “Pass”, the “Ames test (+)S9 1 mg/pl.” value is given as “Pass”, the “Ames test (+)S9 10 mg/pl.” value was “Pass” and the “Ames test (−)S9 0.1 mg/pl.” value is recorded as “Pass”. For the same molecule, in series [1], the “Ames test (−)S9 1 mg/pl.” value is on record as “Pass” and the “Ames test (−)S9 10 mg/pl.” value is recorded as “Pass”.

On to `O=C(O)/C=C/c1nn(Cc2ccc(F)cc2Cl)c2cc(C(F)(F)F)ccc12` [JWS-2-40, 3-[1-(2-chloro, 4-fluorobenzyl)-6-trifluoromethyl-1H-indazol-3-yl]-acrylic acid], for which, in series [1], the “Ames test (+)S9 0.1 mg/pl.” value is reported as “Pass”, the “Ames test (+)S9 1 mg/pl.” value is “Pass”, the “Ames test (+)S9 10 mg/pl.” value is “Pass” and the “Ames test (−)S9 0.1 mg/pl.” value is recorded as “Pass”. In series [1], the “Ames test (−)S9 1 mg/pl.” value is “Pass” and the “Ames test (−)S9 10 mg/pl.” value is “Mar-”.

`NNC(=O)c1nn(Cc2ccc(Cl)cc2Cl)c2ccccc12` [AF2364, reference compound]: in the series with Male Long Evans rats, the “Mortality (25 mg/kg)” value is on record as 0/5, the “Response 25 mg/kg” value was 3/5, the “Mortality (200 mg/kg)” value is reported as 0/5 and the “Response 200 mg/kg” value was 5/5. In addition, in the series with Male Long Evans rats, the “Staging 25 mg/kg” value is recorded as 3.5 and the “Staging 200 mg/kg” value was determined as 2.1.

Turning to `O=C(O)/C=C/c1nn(Cc2ccc(Cl)cc2Cl)c2ccccc12` [AF2785, reference compound], in the series with Male Long Evans rats, the “Mortality (25 mg/kg)” value is listed as 0/5, the “Response 25 mg/kg” value was 1/5, the “Mortality (200 mg/kg)” value is on record as 2/6 and the “Response 200 mg/kg” value is listed as 3/4. Further, in the series on Male Long Evans rats, the “Staging 25 mg/kg” value amounted to 5.5 and the “Staging 200 mg/kg” value turned out to be 3.4.

Regarding `O=C(O)c1nn(Cc2ccc(F)cc2Cl)c2cc(Cl)ccc12` [JWS-2-20, 1-(2-chloro-4-fluorobenzyl)-6-chloro-1H-indazole-3-carboxylic acid], in series [1], the “Ames test (+)S9 0.1 mg/pl.” value was “Pass”, the “Ames test (+)S9 1 mg/pl.” value is “Fail”, the “Ames test (+)S9 10 mg/pl.” value is listed as “Fail” and the “Ames test (−)S9 0.1 mg/pl.” value is recorded as “Mar-”. Further, in series [1], the “Ames test (−)S9 1 mg/pl.” value is “Fail” and the “Ames test (−)S9 10 mg/pl.” value was “Fail”.

Consider `O=C(O)/C=C/c1nn(Cc2ccc(F)cc2F)c2cc(C(F)(F)F)ccc12` [JWS-1-294, 3-[1-(2,4-difluorobenzyl)-6-trifluoromethyl-1H-indazol-3-yl]-acrylic acid], for which, in series [1], the “Ames test (+)S9 0.1 mg/pl.” value is “Pass”, the “Ames test (+)S9 1 mg/pl.” value is on record as “Pass”, the “Ames test (+)S9 10 mg/pl.” value is “Pass” and the “Ames test (−)S9 0.1 mg/pl.” value is listed as “Pass”. Moreover, in series [1], the “Ames test (−)S9 1 mg/pl.” value is recorded as “Pass” and the “Ames test (−)S9 10 mg/pl.” value is reported as “Pass”.
